Literature values, collected in US20060008806A1, “Method for producing novel DNA sequence with biological activity” (University of Washington, priority 1986, published 2006).

Test system: β-lactamases
Settings: Labia, et al., 1979

| SMILES | Km |
| --- | --- |
| CC1(C)S[C@@H]2[C@H](NC(=O)C(C(=O)O)c3ccccc3)C(=O)N2[C@H]1C(=O)O (stereo partly drawn) [carbenicillin] | 10 µM |
| CC1(C)S[C@@H]2[C@H](NC(=O)[C@H](N)c3ccccc3)C(=O)N2[C@H]1C(=O)O [ampicillin] | 31 µM |
| CC1(C)S[C@@H]2[C@H](NC(=O)Cc3ccccc3)C(=O)N2[C@H]1C(=O)O [benzylpenicillin] | 21 µM |
